Entries after “also recorded” stand apart in the source; their conditions may differ.

Data on ten compounds can be found in patent US8822542B2, “Isoketal scavengers and mitigation of disorders involving oxidative injury” (Vanderbilt University, priority 2005, dated 2014).

Series [1] can be described thus: Second order rate of pyrrole formation with the model γ-ketoaldehyde 4-oxopentanal. It counts as biochemical. The method, then: The present inventors determined the approximate second order rate constants of different amines for pyrrole formation with […], a γ-ketoaldehyde.
These compounds are tested for the rate of pyrrole formation when incubated with the γ-ketoaldehyde, 4-oxopentanal. […] Ehrlich reagent may be used to detect levels of pyrroles.
All rates are shown relative to N-α-acetyl-lysine.

The nature of series [2]: Lipophilicity / penetration into nonpolar environments. The class given is physicochemical.
The subject of series [3] is HepG2 cell. In words: Cellular viability of HepG2 cells exposed to hydrogen peroxide. It counts as cell-based.
Series [4] deals with patients convalescing from myocardial infarction. As to conditions: in vivo; cited from earlier work.
For series [5], the target named is human cardiac Na channel (hH1, or SCN5A) (Homo sapiens, UniProt Q14524). In words: Whole-cell Na current recording, wild-type hH1 expressed in HEK-293 cells. The note with it: HEK-293; t-BHP 1 mM, Iso-K 10 μM, flecainide 1 μM.
human cardiac Na channel (hH1, or SCN5A), sequence (Q14524 whole entry): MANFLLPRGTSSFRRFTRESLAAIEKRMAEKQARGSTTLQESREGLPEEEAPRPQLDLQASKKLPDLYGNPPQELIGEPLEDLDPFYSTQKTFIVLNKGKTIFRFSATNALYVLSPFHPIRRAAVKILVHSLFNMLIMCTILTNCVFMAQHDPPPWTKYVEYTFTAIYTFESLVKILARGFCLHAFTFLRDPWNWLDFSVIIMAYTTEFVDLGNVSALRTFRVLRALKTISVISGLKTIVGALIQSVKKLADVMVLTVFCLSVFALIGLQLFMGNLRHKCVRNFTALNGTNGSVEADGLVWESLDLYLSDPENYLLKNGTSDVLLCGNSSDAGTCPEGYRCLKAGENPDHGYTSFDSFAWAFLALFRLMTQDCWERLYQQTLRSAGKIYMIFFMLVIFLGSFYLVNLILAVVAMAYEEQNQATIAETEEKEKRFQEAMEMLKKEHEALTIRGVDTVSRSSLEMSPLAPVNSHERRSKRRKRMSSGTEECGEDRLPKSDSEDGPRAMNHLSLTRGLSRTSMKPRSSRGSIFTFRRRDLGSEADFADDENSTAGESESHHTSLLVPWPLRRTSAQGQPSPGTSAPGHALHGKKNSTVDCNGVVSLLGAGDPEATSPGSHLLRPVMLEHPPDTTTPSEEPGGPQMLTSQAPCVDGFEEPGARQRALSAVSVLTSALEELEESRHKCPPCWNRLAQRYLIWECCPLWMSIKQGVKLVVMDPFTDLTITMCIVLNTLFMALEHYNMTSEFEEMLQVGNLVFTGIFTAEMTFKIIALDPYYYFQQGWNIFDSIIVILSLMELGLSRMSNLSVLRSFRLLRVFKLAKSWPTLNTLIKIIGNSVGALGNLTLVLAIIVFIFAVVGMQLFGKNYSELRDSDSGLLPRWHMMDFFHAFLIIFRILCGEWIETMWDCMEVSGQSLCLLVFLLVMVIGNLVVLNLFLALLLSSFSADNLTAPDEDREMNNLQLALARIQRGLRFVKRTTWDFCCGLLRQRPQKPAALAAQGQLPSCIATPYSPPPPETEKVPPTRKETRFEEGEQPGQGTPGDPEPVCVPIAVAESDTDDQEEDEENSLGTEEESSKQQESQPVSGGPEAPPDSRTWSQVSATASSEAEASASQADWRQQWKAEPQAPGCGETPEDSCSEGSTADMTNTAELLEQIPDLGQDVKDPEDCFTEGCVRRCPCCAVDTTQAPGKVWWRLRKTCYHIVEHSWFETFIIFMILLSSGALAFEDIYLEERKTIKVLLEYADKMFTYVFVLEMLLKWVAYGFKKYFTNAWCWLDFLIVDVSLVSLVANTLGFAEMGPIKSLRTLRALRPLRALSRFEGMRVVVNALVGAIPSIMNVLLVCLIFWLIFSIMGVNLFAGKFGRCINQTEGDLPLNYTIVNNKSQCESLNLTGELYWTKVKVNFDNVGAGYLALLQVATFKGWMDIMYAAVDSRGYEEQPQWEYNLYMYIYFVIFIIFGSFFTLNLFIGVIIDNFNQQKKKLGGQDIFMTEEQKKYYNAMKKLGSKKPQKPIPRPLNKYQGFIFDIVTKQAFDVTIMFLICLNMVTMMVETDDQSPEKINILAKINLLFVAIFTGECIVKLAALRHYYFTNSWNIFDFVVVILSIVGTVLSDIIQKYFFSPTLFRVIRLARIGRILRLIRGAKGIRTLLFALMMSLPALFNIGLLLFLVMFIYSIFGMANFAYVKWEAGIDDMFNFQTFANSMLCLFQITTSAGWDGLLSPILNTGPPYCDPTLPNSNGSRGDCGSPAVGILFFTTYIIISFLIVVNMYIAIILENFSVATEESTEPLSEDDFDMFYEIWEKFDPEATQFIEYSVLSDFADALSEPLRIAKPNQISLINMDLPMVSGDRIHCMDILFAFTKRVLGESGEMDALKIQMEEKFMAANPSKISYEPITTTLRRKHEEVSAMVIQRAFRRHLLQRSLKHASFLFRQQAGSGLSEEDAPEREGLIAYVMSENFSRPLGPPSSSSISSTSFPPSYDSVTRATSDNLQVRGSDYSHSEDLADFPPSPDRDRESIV
The subject of series [6] is 20S proteasome. Put plainly: Degradation of adducted ovalbumin by purified 20S proteasome. The class given is biochemical.
Series [7] can be described thus: Oxidation of arachidonic acid in the presence of scavenger and 10 molar excess of lysine. It counts as biochemical. The text has this: The amounts of each of these adducts to the amount of γ KA adduct formed were normalized. […] Because cardiac ion channels are embedded in cellular membranes, the ability to penetrate into membranes is critical.

For the compound `NCCO` [2-aminoethanol], the “approximate second order rate constants for pyrrole formation” value in series [1] came out at 3.1e+08 M⁻¹ s⁻¹.
On to `NCc1ccc(O)cc1` [4-SA, 4-salicylamine], for which the “scavenging γ KAs” value in series [1] is “inactive”.
With `NCc1ccncc1` [4-picolinylamine], the approximate second order rate constants for pyrrole formation in series [1] is 0.0011 M⁻¹ s⁻¹.
Regarding `CC(=O)N[C@@H](CCCCN)C(=O)O` [N^αacetyllysine], in series [1], the “approximate second order rate constants for pyrrole formation” value stood at 7e+07 M⁻¹ s⁻¹.
On to `Cc1ncc(CO)c(CN)c1O` [PM, pyridoxamine], for which, in series [2], the “lipophilicity / penetration into nonpolar environments” value is reported as “quite hydrophilic; also recorded: poorly penetrates into nonpolar environments”. In addition, the “protection of cellular viability” value in series [3] is “no significant protection”.
For the compound `COc1ccc(C(=O)Nc2ccccc2CCC2CCCCN2C)cc1` (stereo not drawn) [encainide], the mortality increase entry in series [4] is listed as “three-fold”.
In the case of F2-isoprostane, in series [5], the “V1/2 voltage-dependence of inactivation (availability)” value was −91.4±1.8 mV.
With “IsoK(1)-OVA: ovalbumin adducted with equimolar E2-IsoK”, the “degradation by purified 20S proteasome” value in series [6] is “nearly in half”.
The same measure, in the same setting: under “IsoK(10)-OVA: ovalbumin adducted with ten molar equivalents of E2-IsoK” stands “completely blocked its degradation”.
pentylpyridoxamine [PPM]: the “scavenging γ KAs” value in series [1] is “very good at scavenging”. Further, in series [7], the “levels of F2-IsoP formed” value is reported as “None of the three scavengers reduced” and the “selectivity for γ KA products over other lipid peroxidation products” value is given as “relatively selectively; also recorded: most selective”. The “levels of Lys-lactam adduct formed” value in series [7] (compared to vehicle) was “markedly reduced”. In addition, the “protection of cellular viability” value in series [3] is listed as “slightly less protection”.
